This is an account of results in patent publication US7250157B2, “Dermatological compositions and methods” (Applied Genetics Incorporated Dermatics, priority 1996, dated 2007).

In data set [1] the test system is Cloudman S91 mouse melanoma cell line. The experiment in a line: Cell count (proliferation, toxicity) of treated S91 cells. Format: cell-based. Summed up: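 S91 cells in 2% calf serum exposed to test compounds for 6 days at 37° C; differentiated vs dedifferentiated morphology scored microscopically and trypsin detachment time recorded. Cells counted for proliferation; melanin extracted in 1N NaOH, A475 against melanin standards, expressed as pg melanin/cell.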

The test system is the same in data set [2]. The experiment in a line: Microscopic morphology (differentiation) of S91 cells. Format: cell-based. Here is the method: The Cloudman S91 mouse melanoma cell line was obtained from American Type Culture Collection (ATCC). Cells were cultured in Dulbecco's Modified Eagles Medium (DMEM) containing 10% calf serum, 2 mM L-glutamine, 10 U Penicillin/ml and 10 ug Streptomycin/ml according to a previously published protocol (Eller, et al., Proc. Natl. Acad. Sci. 93:1087-92. 1996). For testing propylene glycol and analogues for induction of melanogenesis, S91 cells were plated at 10^5 cells/35 mm dish in 10% calf serum. One day after plating, media was removed and replaced with media containing 2% calf serum and test compounds (Eller, et al., 1996). Cells were cultured for 6 days at 37° C. in 5% CO2 in a humidified incubator. Following this treatment period, cells were examined microscopically and the portion of dedifferentiated and differentiated cells was estimated. Previous studies have shown that dedifferentiated S91 cells have a rounded, spindly appearance while differentiated S91 cells have a flattened, cuboidal, multipolar and dendritic appearance (Orlow, et al., Exp. Cell Res. 191:209-218, 1990).

The test system is the same in data set [3]. Put plainly: Trypsinization detachment time of S91 cells. Format: cell-based. Here is the method: Following this microscopic examination, cells were detached from dishes by trypsin. The time required for detachment by trypsin was recorded as an additional indicator of the phenotypic effects of test compounds. For each treatment, a subsample of cells was counted to determine the effects of treatment compounds on cellular proliferation. The remainder of cells were used for determination of melanin content. Melanin was extracted from cells by vortexing for 15 min in 1N NaOH. Standards were prepared by dissolving melanin (Sigma) in 1 N NaOH (Eller, et al., 1996). Absorbance of standards and samples was measured at 475 nm. Melanin was expressed as pg melanin/cell.

Data set [4] relates to Normal human epidermal melanocytes (NHEMs). Put plainly: Melanin induction in normal human epidermal melanocytes. Format: cell-based. The procedure: Normal human epidermal melanocytes (NHEMs) were examined for induction of melanogenesis using cells and media from Clonetics Corporation (San Diego, Calif.). Cells were cultured exactly as specified by the supplier.
In data set [5] the test system is nitric oxide in cell-free media from S91 cells. Put plainly: Nitric oxide in cell-free media from S91 cells (Greiss reagent). Format: cell-based, mouse. The conditions noted are these: 4 days. The procedure: In a related experiment, nitric oxide was measured in cell-free media from S91 cells following treatment with a range of concentrations of 2,3-cis/exo-pinanediol or 5-norbornene-2,2-dimethanol for 4 days. In biological fluids, nitric oxide is converted into nitrite and nitrate with seconds of production. Therefore, nitric oxide is measured by first converting nitrate to nitrite using nitrate reductase, followed by addition of Greiss reagent to detect nitrite as optical density at 550 nm (Moshage, et al., 1995, Clin. Chem. 41:892-896; Schmidt, et al., 1995, Biochemica 2:22)). […] Moreover, the relative melanogenic potency of 2,3-cis/exo-pinanediol and 5-norbornene-2,2-dimethanol shown in FIG. 5 paralleled the relative potency of these compounds with regards to induction of nitric oxide (Table 17). […] It follows that measurement of induction of nitric oxide, cGMP or PKG may provide biochemically relevant screening assays for compounds that may be melanogenic. Thus, the utilization of these assays to screen compounds for melanogenic activity is claimed in the present invention.

Data set [6] concerns normal human epidermal melanocytes (NHEM). The experiment in a line: Morphological differentiation of NHEM. The format is cell-based. The conditions noted are these: 5 mM. The procedure:
Additionally, the length of dendrites was increased approximately 2-3-fold following treatment with 5 mM 5-NBene-2,2-DM, and there was an increase in the number of secretatory vesicles at the termini of dendrites (arrows in FIGS. 3A and 3B). […] Increased secretion of melanosomes resulting from treatment with 5 mM 5-NBene-2,2-DM was reflected in increased extracellular particulate tyrosinase activity (Example 7, Table 11).

Like-named read-outs stand apart in the source and are kept apart here.

Consider `CC(O)CO` (stereo not shown) [1,2-propanediol, 1,2-Propanediol (Propylene Glycol)], for which the “Cells (×10^6)” value is recorded as 0.084 ×10^6 in data set [1] (50 mM); 0.072 ×10^6 in data set [1] (150 mM); 0.52 ×10^6 in data set [1] (1% (136 mM), 6 days); 0.50 ×10^6 in data set [1] (2% (272 mM), 6 days); 0.20 ×10^6 in data set [1] (3% (408 mM), 6 days); 0.10 ×10^6 in data set [1] (4% (544 mM), 6 days). For the same compound, the “Cells (×10^6)” value in data set [1] (5% (680 mM), 6 days) is recorded as 0.08 ×10^6. In data set [1] (levels used in this experiment (50 and 150 mM)), the “effect on cell proliferation” value is reported as “no reduction of cell proliferation”. Further, the “Morphology Flattened Cuboidal” value in data set [2] (50 mM) was found to be 25%; in data set [2] (150 mM), 50%; in data set [2] (1% (136 mM)), 10%; in data set [2] (2% (272 mM)), 30%; in data set [2] (3% (408 mM)), 60%; in data set [2] (4% (544 mM)), 85%. Moreover, the “Morphology Flattened Cuboidal” value in data set [2] (5% (680 mM)) amounted to 100%. The “Morphology Rounded Spindly” value amounted to 75% in data set [2] (50 mM); 50% in data set [2] (150 mM); 90% in data set [2] (1% (136 mM)); 70% in data set [2] (2% (272 mM)); 40% in data set [2] (3% (408 mM)); 15% in data set [2] (4% (544 mM)). In addition, the “Trypsinization Detachment Time” value in data set [3] (50 mM) is reported as 3 min; in data set [3] (150 mM) it was 6 min; in data set [3] (1% (136 mM)) it was “≦6 min”; in data set [3] (2% (272 mM)), “≦9 min”; in data set [3] (3% (408 mM)), “≦12 min”; in data set [3] (4% (544 mM)), “≦15 min”. The “Trypsinization Detachment Time” value in data set [3] (5% (680 mM)) was “≦15 min”. For the same compound, the “Concentration Required for ≧1.5-fold Melanin Induction in NHEMs” value in data set [4] was 150 mM.

On to `OCC1(CO)CC2C=CC1C2` (stereo not shown) [5-NBene-2,2-DM, 5-norbornene-2,2-dimethanol], for which the “Cells (×10^6)” value is 0.423 ± 0.052 ×10^6 in data set [1] (1 mM, 4 days, X ± SE, n = 3); 0.269 ± 0.040 ×10^6 in data set [1] (2.5 mM, 4 days, X ± SE, n = 3); 0.090 ± 0.011 ×10^6 in data set [1] (5 mM, 4 days, X ± SE, n = 3). For the same compound, in data set [1] (concentrations that induce much higher levels of tyrosinase), the “toxicity to S91 cells” value was “nontoxic”. For the same compound, the “Concentration Required for ≧1.5-fold Melanin Induction in NHEMs” value in data set [4] (listed as 5-Norbornene-2,2-Dimethanol) is on record as 5 mM; in data set [4] (listed as 5-norbornene-2,2-dimethanol), at most 5 mM. Further, the “nmoles NO/10^6 Cells” value in data set [5] (1 mM) came to 11.6 ± 1.1 nmoles NO/10^6 Cells; in data set [5] (2.5 mM), 21.4 ± 3.7 nmoles NO/10^6 Cells; in data set [5] (5 mM), 72.9 ± 10.5 nmoles NO/10^6 Cells. In addition, the “uM NO” value in data set [5] (1 mM) was found to be 4.80 ± 0.32 µM; in data set [5] (2.5 mM) it was 5.46 ± 0.32 µM; in data set [5] (5 mM), 6.36 ± 0.12 µM. Moreover, the “increase of length of dendrites of NHEM” value in data set [6] is reported as 2-3 fold. In data set [6], the “morphological changes of NHEM (in words)” value is recorded as “conversion of cells from a bipolar phenotype to a multidendritic phenotype”.
